Reference: publication PMC3261141, “Largazole and Its Derivatives Selectively Inhibit Ubiquitin Activating Enzyme (E1)” (PLoS ONE, 2012)

Columns and labels:
[1] = molecular target: T1, ubiquitin-activating enzyme E1 (UBA1) (Homo sapiens, UniProt P22314); assay: E1-ubiquitin thioester gel assay with fluorescein-ubiquitin; assay type: biochemical
T1 construct: recombinant human UBA1, GST tag removed by thrombin
T1 sequence (P22314 2-1058): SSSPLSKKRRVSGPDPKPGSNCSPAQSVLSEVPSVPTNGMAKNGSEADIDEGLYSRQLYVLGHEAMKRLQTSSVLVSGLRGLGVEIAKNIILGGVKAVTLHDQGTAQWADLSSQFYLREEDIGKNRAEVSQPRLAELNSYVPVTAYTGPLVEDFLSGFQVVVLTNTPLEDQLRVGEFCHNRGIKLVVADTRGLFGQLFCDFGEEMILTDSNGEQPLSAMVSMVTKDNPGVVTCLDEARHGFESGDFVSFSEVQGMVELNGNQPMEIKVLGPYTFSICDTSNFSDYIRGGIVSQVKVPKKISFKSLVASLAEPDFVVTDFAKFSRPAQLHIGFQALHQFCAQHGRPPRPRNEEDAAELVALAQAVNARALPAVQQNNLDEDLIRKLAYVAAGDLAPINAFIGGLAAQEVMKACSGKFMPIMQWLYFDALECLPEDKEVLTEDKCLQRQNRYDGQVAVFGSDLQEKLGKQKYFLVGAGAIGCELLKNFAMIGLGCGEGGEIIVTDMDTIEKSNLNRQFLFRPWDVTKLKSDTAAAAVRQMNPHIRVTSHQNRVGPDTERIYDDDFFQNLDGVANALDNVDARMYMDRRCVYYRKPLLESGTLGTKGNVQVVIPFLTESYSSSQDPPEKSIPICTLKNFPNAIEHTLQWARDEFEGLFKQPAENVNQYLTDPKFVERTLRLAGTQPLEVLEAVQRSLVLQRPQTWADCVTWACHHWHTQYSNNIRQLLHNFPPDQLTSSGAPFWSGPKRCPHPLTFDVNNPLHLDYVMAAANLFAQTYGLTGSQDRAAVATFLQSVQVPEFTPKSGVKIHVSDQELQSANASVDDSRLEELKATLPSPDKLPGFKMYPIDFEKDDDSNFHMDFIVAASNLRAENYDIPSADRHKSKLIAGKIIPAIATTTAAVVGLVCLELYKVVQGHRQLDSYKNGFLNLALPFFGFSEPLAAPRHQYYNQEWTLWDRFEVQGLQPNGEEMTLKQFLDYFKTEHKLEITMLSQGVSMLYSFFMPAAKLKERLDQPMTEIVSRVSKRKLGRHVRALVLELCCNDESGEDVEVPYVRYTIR

[2] = molecular target: T1, ubiquitin-activating enzyme E1 (UBA1); assay: thioester gel assay; PPi:ATP and AMP:ATP exchange assays; assay type: biochemical

Compound | IC50 [1] [µM] | IC50 [2] [µM]
CCCCCCCC(=O)OCC/C=C/[C@@H]1CC(=O)NCc2nc(cs2)C2=N[C@@](C)(CS2)C(=O)N[C@@H](C(C)C)C(=O)O1 [E, Largazole ester] | ~25 | –
CCCCCCCC(=O)CCC/C=C/[C@@H]1CC(=O)NCc2nc(cs2)C2=N[C@@](C)(CS2)C(=O)N[C@@H](C(C)C)C(=O)O1 [K, Largazole ketone] | – | ~30
CCCCCCCC(=O)SCC/C=C/[C@@H]1CC(=O)NCc2nc(cs2)C2=N[C@@](C)(CS2)C(=O)N[C@@H](C(C)C)C(=O)O1 [L, Largazole] | ~29 | –
